Measurements as given in ChEMBL document CHEMBL5512599, “Synthetic non-toxic anti-biofilm agents as a strategy in combating bacterial resistance” (Eur J Med Chem, 2023).
≈ marks a conversion by molar mass, not a printed value. One block for each compound: values may come before it.

Legend:
Staphylococcus aureus [1] = assay: Antibiofilm activity against Staphylococcus aureus ATCC 33862 assessed as reduction in biofilm formation at 20 uM incubated for 24 hrs by absorbance based assay relative to control; assay type: functional; set-up: scale not given: the % may be the effect or the level left
Pseudomonas aeruginosa [2] = assay: Antibiofilm activity against Pseudomonas aeruginosa ATCC 10145 assessed as reduction in biofilm formation at 20 uM incubated for 24 hrs by absorbance based assay relative to control; assay type: functional; set-up: scale not given: the % may be the effect or the level left
Pseudomonas aeruginosa [3] = assay: Antibiofilm activity against Pseudomonas aeruginosa PA14 assessed as inhibition of biofilm formation incubated for 24 hrs by microscopic analysis; assay type: functional, organism-based; conditions: PA14, 24 h
Pseudomonas aeruginosa [4] = assay: Antibiofilm activity against Pseudomonas aeruginosa PAO1 assessed as inhibition of biofilm formation incubated at 15 uM relative to control; assay type: functional; set-up: scale not given: the % may be the effect or the level left
[5] = Inhibition of Quorum sensing system Las in Pseudomonas aeruginosa PAO1 assessed as reduction in interaction with LasR regulator
[6] = molecular target: T1, Transcriptional regulator MvfR (Pseudomonas aeruginosa PA14, UniProt A0A072ZLE6); assay: Antagonist activity at PqsR in wild-type Pseudomonas aeruginosa PAO1-L
T1 sequence (A0A072ZLE6 whole entry): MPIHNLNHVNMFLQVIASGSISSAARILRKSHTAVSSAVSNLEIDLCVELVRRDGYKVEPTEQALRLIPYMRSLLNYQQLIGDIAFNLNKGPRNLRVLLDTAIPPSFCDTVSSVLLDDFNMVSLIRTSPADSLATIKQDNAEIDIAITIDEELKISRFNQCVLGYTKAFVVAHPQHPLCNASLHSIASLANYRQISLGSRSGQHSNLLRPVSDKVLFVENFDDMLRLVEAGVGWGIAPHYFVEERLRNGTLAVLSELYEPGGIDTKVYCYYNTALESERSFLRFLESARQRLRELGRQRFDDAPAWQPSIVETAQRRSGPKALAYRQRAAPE

Enterococcus faecalis [7] = assay: Antibacterial activity against Enterococcus faecalis ATCC 29212 assessed as bacterial growth inhibition incubated for 15 to 18 hrs by Muller hinton broth based dilution assay; assay type: functional; conditions: time 15-18 hrs
Enterococcus faecalis [8] = assay: Antibiofilm activity against Enterococcus faecalis ATCC 29212 assessed as biofilm eradication incubated for 20 mins by crystal violet staining based analysis; assay type: functional
Pseudomonas aeruginosa [9] = assay: Antibiofilm activity against Pseudomonas aeruginosa ATCC 27853 assessed as inhibition of biofilm formation at 0.5 times of MIC by crystal violet staining based analysis relative to control; assay type: functional; set-up: scale not given: the % may be the effect or the level left
[10] = Inhibition of quorum sensing system in Pseudomonas aeruginosa PA14 assessed as inhibition of pyocyanin production
Staphylococcus aureus [11] = assay: Antibiofilm activity against methicillin-resistant Staphylococcus aureus assessed as inhibition of biofilm formation incubated for overnight by crystal violet staining based microtiter plate assay; assay type: functional, organism-based
[12] = molecular target: T1, Transcriptional regulator MvfR; assay: Antagonist activity at PqsR in wild-type Pseudomonas aeruginosa PAO1 assessed as reduction in AQ level at 0.2 uM by LCMS/MS analysis
Pseudomonas aeruginosa [13] = assay: Antibiofilm activity against Pseudomonas aeruginosa PAO1 assessed as inhibition of biofilm formation incubated at 100 uM incubated for 24 hrs by crystal violet staining based analysis relative to control; assay type: functional; set-up: scale not given: the % may be the effect or the level left
Pseudomonas aeruginosa [14] = assay: Antibiofilm activity against Pseudomonas aeruginosa PAO1 assessed as inhibition of biofilm formation incubated at 50 uM incubated for 24 hrs by crystal violet staining based analysis relative to control; assay type: functional; set-up: scale not given: the % may be the effect or the level left
Pseudomonas aeruginosa [15] = assay: Anti-motility activity against Pseudomonas aeruginosa PAO1 assessed as reduction in swarming at 20 uM incubated for 16 hrs by crystal violet staining analysis relative to control; assay type: functional; set-up: scale not given: the % may be the effect or the level left
[16] = tested on: Staphylococcus epidermidis; assay: Antibiofilm activity against Staphylococcus epidermidis assessed as inhibition of biofilm formation at 40 uM measured after 24 hrs by confocal laser scanning microscopy analysis relative to control; assay type: functional; set-up: scale not given: the % may be the effect or the level left
Pseudomonas aeruginosa [17] = assay: Antibiofilm activity against Pseudomonas aeruginosa PAO1 assessed as inhibition of biofilm formation at 100 uM relative to control; assay type: functional; set-up: scale not given: the % may be the effect or the level left
[18] = Inhibition of quorum sensing system in Pseudomonas aeruginosa PAO1 assessed as inhibition of pyocyanin production at 256 ug/ml incubated for 24 hrs by absorbance based assay
Staphylococcus aureus [19] = assay: Antimicrobial activity against Staphylococcus aureus ATCC 25923 assessed as reduction in bacterial growth at 0.12 uM incubated for 16 hrs by broth dilution method relative to control; assay type: functional; set-up: scale not given: the % may be the effect or the level left
Staphylococcus aureus [20] = assay: Antimicrobial activity against Staphylococcus aureus ATCC 25923 assessed as reduction in bacterial growth at 0.25 uM incubated for 16 hrs by broth dilution method relative to control; assay type: functional; set-up: scale not given: the % may be the effect or the level left
Staphylococcus aureus [21] = assay: Antimicrobial activity against Staphylococcus aureus ATCC 25923 assessed as reduction in bacterial growth at 0.5 uM incubated for 16 hrs by broth dilution method relative to control; assay type: functional; set-up: scale not given: the % may be the effect or the level left
[22] = molecular target: T1, Transcriptional regulator MvfR; assay: Inhibition of PqsR-mediated quorum sensing system in Pseudomonas aeruginosa PAO1 assessed as reduction in pyocyanin production
Staphylococcus aureus [23] = assay: Antibiofilm activity against Staphylococcus aureus ATCC 25923 at 25 ug/ml measured after 24 hrs by crystal violet staining based analysis relative to control; assay type: functional; conditions: dose 25 µg/ml
Pseudomonas aeruginosa [24] = assay: Antibacterial activity against Pseudomonas aeruginosa 27853 assessed as inhibition of bacterial growth at 32 microg/ml incubated for 24 hrs in presence of Ciprofloxacin by absorbance based microplate reader analysis relative to control; assay type: functional; set-up: scale not given: the % may be the effect or the level left; conditions: dose 32 µg/ml
Pseudomonas aeruginosa [25] = assay: Antibiofilm activity against Pseudomonas aeruginosa PAO1 assessed as inhibition of biofilm formation at 64 microg/ml incubated for 24 hrs by BacTiter Glo reagent based luminescence analysis relative to control; assay type: functional; set-up: scale not given: the % may be the effect or the level left; conditions: dose 64 µg/ml
Pseudomonas aeruginosa [26] = assay: Antibacterial activity against Pseudomonas aeruginosa 27853 assessed as inhibition of bacterial growth at 32 microg/ml incubated for 24 hrs in presence of Clarithromycin by absorbance based microplate reader analysis relative to control; assay type: functional; set-up: scale not given: the % may be the effect or the level left; conditions: dose 32 µg/ml

Structure (SMILES): CCCCCCCCCCCCCCCC(=O)Nc1c(N)[nH]c2ccccc2c1=O
Activity (Staphylococcus aureus [1]): >=50%
Activity (Pseudomonas aeruginosa [2]): >=50%

IC50 (Pseudomonas aeruginosa [3]): 60 µM
Structure (SMILES): CCCCCCN(CCCCCC)C(=O)CCCc1c[nH]c(N)n1

Structure (SMILES): Cc1cccc(NC(=O)CC(=O)CSC(=S)N[C@@H]2CCOC2=O)c1
Activity (Pseudomonas aeruginosa [4]): 35%

Structure (SMILES): CCCCCCCCCCCCCC(=O)Nc1cc(=O)c2ccccc2[nH]1
Activity (Staphylococcus aureus [1]): >=50%
Activity (Pseudomonas aeruginosa [2]): >=50%

Structure (SMILES): COc1cccc(NC(=O)CC(=O)CSC(=S)N[C@@H]2CCOC2=O)c1
Activity (Pseudomonas aeruginosa [4]): 35%

IC50 [5]: 250 µM
Structure (SMILES): CCCCCCCC(=O)NC1CCCC1

Structure (SMILES): CCCCCCCCCc1nc2cc(Cl)ccc2c(=O)n1N
IC50 [6]: 1.2 µM

IC50 (Pseudomonas aeruginosa [3]): 16 µM
Structure (SMILES): CCCCCCC(CCCCCC)NC(=O)CCCc1c[nH]c(N)n1

MIC (Enterococcus faecalis [7]): 0.032 µg/mL (≈ 0.0742 µM)
Structure (SMILES): Clc1ccc(-c2csc(-c3ccc(-c4cnc(-c5ccccc5)s4)cc3)n2)cc1
MBEC (Enterococcus faecalis [8]): 0.016 µg/mL

IC50 [10]: 12 µM
Structure (SMILES): NCCCCCCCCCCCCNc1ccnc2cc(Cl)ccc12
Activity (Pseudomonas aeruginosa [9]): 85%

Structure (SMILES): CCCCOc1ccc(/C=C(\C)Cn2cc(CCCCCc3c[nH]c(N)n3)nn2)cc1
IC50 (Staphylococcus aureus [11]): < 10 µM

Structure (SMILES): N#CCc1ccc(OC[C@H](O)Cn2cnc3ccc(Cl)cc3c2=O)cc1
IC50 [12]: 1.1 µM

Structure (SMILES): O=C(CCCNc1ccc(F)cc1)NC1CCOC1=O (configuration not stated)
Activity (Pseudomonas aeruginosa [13]): 70%

Structure (SMILES): O=C(CCCCCCCCCN=C=S)CC(=O)N[C@H]1CCOC1=O
Activity (Pseudomonas aeruginosa [14]): 50%

Structure (SMILES): CCOC(=O)C1S/C(=N\N=C\c2cccc(Cl)c2)N(c2ccc(S(N)(=O)=O)cc2)C1=O (configuration not stated)
Activity (Pseudomonas aeruginosa [15]): 72%
Activity [16]: 80%

Structure (SMILES): O=C(CSC(=S)N[C@@H]1CCOC1=O)CC(=O)Nc1cccc2ccccc12
Activity (Pseudomonas aeruginosa [4]): 35%

IC50 [18]: 35 µM
Structure (SMILES): O=C(c1ccc(Cl)cc1)c1ccnc(C(F)F)c1
Activity (Pseudomonas aeruginosa [17]): 71%

MIC (Enterococcus faecalis [7]): 0.125 µg/mL (≈ 0.315 µM)
Structure (SMILES): c1ccc(-c2csc(-c3ccc(-c4cnc(-c5ccccc5)s4)cc3)n2)cc1
MBEC (Enterococcus faecalis [8]): 0.002 µg/mL

Structure (SMILES): O=C(CCCNc1ccc(Cl)cc1)NC1CCOC1=O (configuration not stated)
Activity (Pseudomonas aeruginosa [13]): 70%

Structure (SMILES): Cc1ccc(C(=O)c2nn(-c3nc(-c4ccccc4)c(-c4sc(-n5nc(C(=O)c6ccc(C(F)(F)F)cc6)c(C#N)c5N)nc4-c4ccccc4)s3)c(N)c2C#N)cc1
Activity (Staphylococcus aureus [19]): 15%
Activity (Staphylococcus aureus [20]): 20%
Activity (Staphylococcus aureus [21]): 35%

MIC (Enterococcus faecalis [7]): 0.062 µg/mL (≈ 0.147 µM)
Structure (SMILES): N#Cc1ccc(-c2csc(-c3ccc(-c4cnc(-c5ccccc5)s4)cc3)n2)cc1
MBEC (Enterococcus faecalis [8]): 0.002 µg/mL

IC50 [18]: 27 µM
Structure (SMILES): COC(=O)c1ccnc(C(F)F)c1
Activity (Pseudomonas aeruginosa [17]): 85%

Structure (SMILES): CCCCCCCCCc1nc2cc(F)ccc2c(=O)n1N
IC50 [6]: 1.2 µM

Structure (SMILES): Clc1ccc2c(NCCCCCCCCNCc3cc4ccccc4s3)ccnc2c1
IC50 [22]: 30 µM

Structure (SMILES): Cc1nn(C)c([N-]C(=O)c2ccc(Cl)cc2)c1[N+]#N
Activity (Staphylococcus aureus [23]): 69%

Structure (SMILES): COc1ccc(OCCCCCCCC(=O)NNC(=O)Cn2c(=O)oc3ncccc32)cc1
Activity (Pseudomonas aeruginosa [24]): 48.27%
inhibition ([18]; dose 256.0 µg/ml): 53%
Activity (Pseudomonas aeruginosa [25]): 40%
Activity (Pseudomonas aeruginosa [26]): 49.79%

IC50 [18]: 17 µM
Structure (SMILES): N#Cc1ccnc(C(F)F)c1
Activity (Pseudomonas aeruginosa [17]): 73%
